target: recombinant mTOR (FLAG-tagged, residues 1362-2549) (Homo sapiens, UniProt P42345); assay: In vitro mTOR kinase assay (Test (a), AlphaScreen); format: biochemical; details: ATP 20 μM, read-out: Test (a): IC50 versus mTOR kinase
Description: (a) In Vitro mTOR Kinase Assay
Following expression in the mammalian HEK293 cell line, expressed protein was purified using the FLAG epitope tag using standard purification techniques.
Aliquots (2 μl) of each compound dilution were placed into a well of a Greiner 384-well low volume (LV) white polystyrene plate (Greiner Bio-one).
These assay solutions were incubated for 2 hours at room temperature.
The resultant signals arising from laser light excitation at 680 nm were read using a Packard Envision instrument.
The phosphorylated biotinylated peptide that is associated with AlphaScreen Streptavidin donor beads forms a complex with the p70 S6 Kinase (T389) 1A5 Monoclonal Antibody that is associated with Alphascreen Protein A acceptor beads. Upon laser light excitation at 680 nm, the donor bead: acceptor bead complex produces a signal that can be measured. Accordingly, the presence of mTOR kinase activity results in an assay signal. In the presence of an mTOR kinase inhibitor, signal strength is reduced.
mTOR enzyme inhibition for a given test compound was expressed as an IC50 value.

recombinant mTOR (FLAG-tagged, residues 1362-2549), sequence (P42345 1362-2549): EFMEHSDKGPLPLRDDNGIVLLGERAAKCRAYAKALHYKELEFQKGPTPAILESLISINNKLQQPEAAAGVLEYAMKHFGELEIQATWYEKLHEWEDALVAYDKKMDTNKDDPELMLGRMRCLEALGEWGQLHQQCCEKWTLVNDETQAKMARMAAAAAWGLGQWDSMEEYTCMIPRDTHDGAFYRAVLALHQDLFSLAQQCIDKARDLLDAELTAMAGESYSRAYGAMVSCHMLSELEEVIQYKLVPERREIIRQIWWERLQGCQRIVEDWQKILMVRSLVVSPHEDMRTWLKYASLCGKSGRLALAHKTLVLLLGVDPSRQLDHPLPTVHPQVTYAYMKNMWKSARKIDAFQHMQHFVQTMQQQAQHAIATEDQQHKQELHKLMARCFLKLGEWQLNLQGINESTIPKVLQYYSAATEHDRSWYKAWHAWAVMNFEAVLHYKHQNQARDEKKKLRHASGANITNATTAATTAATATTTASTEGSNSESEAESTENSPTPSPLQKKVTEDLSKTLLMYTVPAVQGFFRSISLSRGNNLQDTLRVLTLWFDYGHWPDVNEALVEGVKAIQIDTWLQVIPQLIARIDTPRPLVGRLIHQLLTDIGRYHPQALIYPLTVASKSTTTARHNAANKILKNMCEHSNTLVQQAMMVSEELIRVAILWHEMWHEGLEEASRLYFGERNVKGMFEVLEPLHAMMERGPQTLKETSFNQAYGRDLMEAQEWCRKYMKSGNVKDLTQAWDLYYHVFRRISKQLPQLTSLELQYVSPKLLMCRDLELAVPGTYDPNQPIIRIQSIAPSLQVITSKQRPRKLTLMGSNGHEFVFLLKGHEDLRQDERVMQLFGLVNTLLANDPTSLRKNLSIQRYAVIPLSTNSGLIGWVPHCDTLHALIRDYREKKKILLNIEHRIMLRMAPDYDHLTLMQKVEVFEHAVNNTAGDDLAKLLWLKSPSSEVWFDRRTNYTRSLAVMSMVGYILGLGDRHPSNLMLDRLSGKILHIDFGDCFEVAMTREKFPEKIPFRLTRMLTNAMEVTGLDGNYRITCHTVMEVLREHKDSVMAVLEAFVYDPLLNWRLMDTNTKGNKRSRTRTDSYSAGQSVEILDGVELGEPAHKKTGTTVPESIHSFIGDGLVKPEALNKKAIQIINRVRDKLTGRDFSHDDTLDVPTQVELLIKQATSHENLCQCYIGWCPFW

IC50 [nM]	SMILES
420	CS(=O)(=O)Cc1cc(N2CCOCC2)nc(-c2ccc(NC(=O)Nc3ccc(Cl)cc3)cc2)n1 [Example 7b, 3-(4-chlorophenyl)-1-[4-[4-(methylsulfonylmethyl)-6-morpholin-4-yl-pyrimidin-2-yl]phenyl]urea]
1700	CS(=O)(=O)Cc1cc(N2CCOCC2)nc(-c2ccc(NC(=O)Nc3ccc(C(F)(F)F)cc3)cc2)n1 [Example 7c, 1-[4-[4-(methylsulfonylmethyl)-6-morpholin-4-yl-pyrimidin-2-yl]phenyl]-3-[4-(trifluoromethyl)phenyl]urea]
2600	Cc1cc(C)cc(NC(=O)Nc2ccc(-c3nc(CS(C)(=O)=O)cc(N4CCOCC4)n3)cc2)c1 [Example 7d, 1-(3,5-dimethylphenyl)-3-[4-[4-(methylsulfonylmethyl)-6-morpholin-4-yl-pyrimidin-2-yl]phenyl]urea]
2600	CS(=O)(=O)Cc1cc(N2CCOCC2)nc(-c2ccc(NC(=O)Nc3ccccc3OC(F)F)cc2)n1 [Example 7e, 3-[2-(difluoromethoxy)phenyl]-1-[4-[4-(methylsulfonylmethyl)-6-morpholin-4-yl-pyrimidin-2-yl]phenyl]urea]
1300	CS(=O)(=O)Cc1cc(N2CCOCC2)nc(-c2ccc(NC(=O)Nc3ccc(F)c(Cl)c3)cc2)n1 [Example 7g, 3-(3-chloro-4-fluoro-phenyl)-1-[4-[4-(methylsulfonylmethyl)-6-morpholin-4-yl-pyrimidin-2-yl]phenyl]urea]
240	CS(=O)(=O)Cc1cc(N2CCOCC2)nc(-c2ccc(NC(=O)Nc3ccccc3)cc2)n1 [Example 7h, 1-[4-[4-(methylsulfonylmethyl)-6-morpholin-4-yl-pyrimidin-2-yl]phenyl]-3-phenyl-urea]
1900	CCCCCNC(=O)Nc1ccc(-c2nc(CS(C)(=O)=O)cc(N3CCOCC3)n2)cc1 [Example 7j, 3-[4-[4-(methylsulfonylmethyl)-6-morpholin-4-yl-pyrimidin-2-yl]phenyl]-1-pentyl-urea]
720	CS(=O)(=O)Cc1cc(N2CCOCC2)nc(-c2ccc(NC(=O)Nc3ccc(F)c(F)c3)cc2)n1 [Example 7k, 3-(3,4-difluorophenyl)-1-[4-[4-(methylsulfonylmethyl)-6-morpholin-4-yl-pyrimidin-2-yl]phenyl]urea]
7000	CS(=O)(=O)Cc1cc(N2CCOCC2)nc(-c2ccc(NC(=O)NC3CCCCC3)cc2)n1 [Example 7l, 3-cyclohexyl-1-[4-[4-(methylsulfonylmethyl)-6-morpholin-4-yl-pyrimidin-2-yl]phenyl]urea]
200	CCCNC(=O)Nc1ccc(-c2nc(CS(C)(=O)=O)cc(N3CCOCC3)n2)cc1 [Example 7n, 3-[4-[4-(methylsulfonylmethyl)-6-morpholin-4-yl-pyrimidin-2-yl]phenyl]-1-propyl-urea]
1700	CCc1cccc(NC(=O)Nc2ccc(-c3nc(CS(C)(=O)=O)cc(N4CCOCC4)n3)cc2)c1 [Example 7o, 1-(3-ethylphenyl)-3-[4-[4-(methylsulfonylmethyl)-6-morpholin-4-yl-pyrimidin-2-yl]phenyl]urea]
3800	CS(=O)(=O)Cc1cc(N2CCOCC2)nc(-c2ccc(NC(=O)NCc3ccco3)cc2)n1 [Example 7p, 3-(2-furylmethyl)-1-[4-[4-(methylsulfonylmethyl)-6-morpholin-4-yl-pyrimidin-2-yl]phenyl]urea]
1700	CS(=O)(=O)Cc1cc(N2CCOCC2)nc(-c2ccc(NC(=O)NCCc3cccs3)cc2)n1 [Example 7q, 1-[4-[4-(methylsulfonylmethyl)-6-morpholin-4-yl-pyrimidin-2-yl]phenyl]-3-(2-thiophen-2-ylethyl)urea]
190	CS(=O)(=O)Cc1cc(N2CCOCC2)nc(-c2ccc(NC(=O)Nc3cccs3)cc2)n1 [Example 7r, 1-[4-[4-(methylsulfonylmethyl)-6-morpholin-4-yl-pyrimidin-2-yl]phenyl]-3-thiophen-2-yl-urea]
31	CS(=O)(=O)Cc1cc(N2CCOCC2)nc(-c2ccc(NC(=O)NC3CC3)cc2)n1 [Example 8, 3-Cyclopropyl-1-[4-[4-(methylsulfonylmethyl)-6-morpholin-4-yl-pyrimidin-2-yl]phenyl]urea]
470	CC(C)(C)NC(=O)Nc1ccc(-c2nc(CS(C)(=O)=O)cc(N3CCOCC3)n2)cc1 [Example 8a, 1-[4-[4-(methylsulfonylmethyl)-6-morpholin-4-yl-pyrimidin-2-yl]phenyl]-3-tert-butyl-urea]
420	CC(=O)NCCNC(=O)Nc1ccc(-c2nc(CS(C)(=O)=O)cc(N3CCOCC3)n2)cc1 [Example 8b, N-[2-[[4-[4-(methylsulfonylmethyl)-6-morpholin-4-yl-pyrimidin-2-yl]phenyl]carbamoylamino]ethyl]acetamide]

IC50 [nM]	SMILES
2200	CN(C)CCN(C)C(=O)Nc1ccc(-c2nc(CS(C)(=O)=O)cc(N3CCOCC3)n2)cc1 [Example 8c, 1-(2-dimethylaminoethyl)-1-methyl-3-[4-[4-(methylsulfonylmethyl)-6-morpholin-4-yl-pyrimidin-2-yl]phenyl]urea]
570	CS(=O)(=O)Cc1cc(N2CCOCC2)nc(-c2ccc(NC(=O)NCc3ncc[nH]3)cc2)n1 [Example 8d, 3-(1H-imidazol-2-ylmethyl)-1-[4-[4-(methylsulfonylmethyl)-6-morpholin-4-yl-pyrimidin-2-yl]phenyl]urea]
280	CN(C(=O)Nc1ccc(-c2nc(CS(C)(=O)=O)cc(N3CCOCC3)n2)cc1)C1CC1 [Example 8e, 1-cyclopropyl-1-methyl-3-[4-[4-(methylsulfonylmethyl)-6-morpholin-4-yl-pyrimidin-2-yl]phenyl]urea]
300	CC(C)CNC(=O)Nc1ccc(-c2nc(CS(C)(=O)=O)cc(N3CCOC[C@@H]3C)n2)cc1 [Example 8f, 1-[4-[4-[(3S)-3-Methylmorpholin-4-yl]-6-(methylsulfonylmethyl)pyrimidin-2-yl]phenyl]-3-(2-methylpropyl)urea]
960	CC(C)NC(=O)Nc1cccc(-c2nc(CS(C)(=O)=O)cc(N3CCOC[C@@H]3C)n2)c1 [Example 8g, 1-[3-[4-[(3S)-3-Methylmorpholin-4-yl]-6-(methylsulfonylmethyl)pyrimidin-2-yl]phenyl]-3-propan-2-yl-urea]
920	CCNC(=O)Nc1cccc(-c2nc(CS(C)(=O)=O)cc(N3CCOC[C@@H]3C)n2)c1 [Example 8h, 3-Ethyl-1-[3-[4-[(3S)-3-methylmorpholin-4-yl]-6-(methylsulfonylmethyl)pyrimidin-2-yl]phenyl]urea]
1400	CCNC(=O)Nc1ccc(-c2nc(CS(C)(=O)=O)cc(N3CCOC[C@@H]3C)n2)cc1Cl [Example 8i, 1-[2-Chloro-4-[4-[(3S)-3-methylmorpholin-4-yl]-6-(methylsulfonylmethyl)pyrimidin-2-yl]phenyl]-3-ethyl-urea]
160	CNC(=O)Nc1ccc(-c2nc(CS(C)(=O)=O)cc(N3CCOC[C@@H]3C)n2)cc1C [Example 8j, 3-Methyl-1-[2-methyl-4-[4-[(3S)-3-methylmorpholin-4-yl]-6-(methylsulfonylmethyl)pyrimidin-2-yl]phenyl]urea]
590	CC(C)S(=O)(=O)Cc1cc(N2CCOC[C@@H]2C)nc(-c2ccc(NC(=O)Nc3ccccc3)cc2)n1 [Example 9, 1-[4-[4-[(3S)-3-Methylmorpholin-4-yl]-6-(propan-2-ylsulfonylmethyl)pyrimidin-2-yl]phenyl]-3-phenyl-urea]
19000	C[C@H]1COCCN1c1cc(CO)nc(-c2ccc(NC(=O)N(C)C)cc2)n1 [Example 10, 3-[4-[4-(Hydroxymethyl)-6-[(3S)-3-methylmorpholin-4-yl]pyrimidin-2-yl]phenyl]-1,1-dimethyl-urea]
140	CC(=O)NCCS(=O)(=O)Cc1cc(N2CCOC[C@@H]2C)nc(-c2ccc(NC(=O)Nc3ccccc3)cc2)n1 [Example 11, N-[2-[[6-[(3S)-3-methylmorpholin-4-yl]-2-[4-(phenylcarbamoylamino)phenyl]pyrimidin-4-yl]methylsulfonyl]ethyl]acetamide]
230	C[C@H]1COCCN1c1cc(CS(=O)(=O)c2ccccc2)nc(-c2ccc(NC(=O)Nc3ccccc3)cc2)n1 [Example 12, 1-[4-[4-(Benzenesulfonylmethyl)-6-[(3S)-3-methylmorpholin-4-yl]pyrimidin-2-yl]phenyl]-3-phenyl-urea]
2100	C[C@H]1COCCN1c1cc(CS(=O)(=O)CC#N)nc(-c2ccc(NC(=O)N(C)C)cc2)n1 [Example 13, 3-[4-[4-(Cyanomethylsulfonylmethyl)-6-[(3S)-3-methylmorpholin-4-yl]pyrimidin-2-yl]phenyl]-1,1-dimethyl-urea]
420	CC(C)S(=O)(=O)Cc1cc(N2CCOC[C@@H]2C)nc(-c2ccc(NC(=O)N(C)C)cc2)n1 [Example 14, 1,1-Dimethyl-3-[4-[4-[(3S)-3-methylmorpholin-4-yl]-6-(propan-2-ylsulfonylmethyl)pyrimidin-2-yl]phenyl]urea]
1000	C[C@H]1COCCN1c1cc(CS(=O)(=O)c2ccccc2)nc(-c2ccc(NC(=O)N(C)C)cc2)n1 [Example 15, 3-[4-[4-(Benzenesulfonylmethyl)-6-[(3S)-3-methylmorpholin-4-yl]pyrimidin-2-yl]phenyl]-1,1-dimethyl-urea]
4000	CC(=O)NCCS(=O)(=O)Cc1cc(N2CCOC[C@@H]2C)nc(-c2ccc(NC(=O)N(C)C)cc2)n1 [Example 16, N-[2-[[2-[4-(Dimethylcarbamoylamino)phenyl]-6-[(3S)-3-methylmorpholin-4-yl]pyrimidin-4-yl]methylsulfonyl]ethyl]acetamide]

From patent US7750003B2, “Compounds-943” (AstraZeneca AB, priority 2006, dated 2010)
